# Test results from patent US20150315241A1, “Antibiotic Peptides” (priority 2007, published 2015).
# Where a SMILES comes first, the peptide text is derived from it. Where no end group is shown, it is not given here. [ ]: non-standard residue; d: D form. The star is where a group is joined. Orn(α-tetramethylguanidino) = CN(C)C(=N[C@@H](CCCN)C(=O)*)N(C)C; hArg = N=C(N)NCCCC[C@H](N)C(=O)O; β3hR = N=C(N)NCCC[C@H](N)CC(=O)O; X1 = CN(C)C(=NCC(=O)*)N(C)C; Orn = NCCC[C@H](N)C(=O)O
# Experiments:
# [1] = tested on: S. enterica subsp. Enterica serovar. typhi G10215 ATCC 700408; format: cell-based, Salmonella enterica; settings: ATCC 700408, 20 h
# Method: (§1) The minimal inhibition concentrations (MIC) of the apidaecin-derived peptides and peptide-derivatives were determined by a growth inhibition assay using a serial peptide dilution in sterilized round-bottom 96-well plates (polystyrene, U-bottom, Greiner Bio-One GmbH) with a final volume of 100 μL per well. The bacteria, e.g., E. coli BL21 A1, were grown in nutrient broth (NB, Carl Roth GmbH+Co. KG, Karlsruhe, Germany) at 37° C. over night. To each well of the 96-well plate, 50 μL of the overnight culture adjusted to 5×10^6 CFU/mL in 1% TSB were added. Lyophilized peptides and peptidomimetics were dissolved in 1% TSB (tryptic soy broth) or water to give a final concentration of 250 μg/mL. Fifty μL of the peptide or peptidomimetics solution were added to the first well of a row on the plate and mixed. Fifty μL of the first well containing the peptide solution were transferred to the second well, mixed and again 50 μL transferred to the next well and so on. Thereby, a two-fold dilution series was obtained starting at 250 μg/mL in the first well down to 120 ng/mL in the 12th well of a row giving a final peptide or peptidomimetics concentration from 125 μg/mL (well 1) to 60 ng/mL (well 12). Plates were incubated at 37° C. for 20 hrs. The absorbance was measured at 595 nm using a TECAN micro plate spectrophotometer (Tecan, Germany). All peptides and peptidomimetics were measured in triplicates. Sterilized water was used as a negative control.
# (§2) The following multidrug resistant bacteria strains were tested: • Eschericha coli 45849 and D31, • Klebsiella pneumoniae 123132 and K6, • Salmonella typhi S5 and Salmonella enterica subsp. enterica serovar Typhimurium (ATCC 700408), • Rhizobium radiobacter (ATCC 15955 deposited as Agrobacterium tumefaciens).
# [2] = tested on: K. Pneumonia K6, ATCC 700603; assay: Growth inhibition assay (MIC); format: cell-based, Klebsiella pneumoniae; settings: multidrug resistant strain; 1% TSB, 37° C., 20 hrs
# Method: as §1, §2
# E. coli D31 = format: cell-based, Escherichia coli; settings: D31, 20 h
# Method: as §1, §2
# S. typhi S5 = format: cell-based, Salmonella typhi; settings: S5, 20 h
# Method: as §1, §2
# E. coli 45849 = assay: Growth inhibition assay (MIC); format: cell-based, Escherichia coli; settings: multidrug resistant strain; 1% TSB, 37° C., 20 hrs
# Method: as §1, §2
# K. Pneumonia 123132 = assay: Growth inhibition assay (MIC); format: cell-based, Klebsiella pneumoniae; settings: multidrug resistant strain; 1% TSB, 37° C., 20 hrs
# Method: as §1, §2
# M. luteus ATCC 10240 = format: cell-based, Micrococcus luteus; settings: ATCC 10240, 20 h
# Method: as §1
# (§3) The bacteria strains were tested: • Eschericha coli 1103, 10233, BL 21 AI, DC 2, • Klebsiella pneumoniae 681, • Micrococcus luteus ATCC 10240, • Mycobacterium vaccae • Bactillus subtillis 347.
# K. pneumonia 681 = format: cell-based, Klebsiella pneumoniae; settings: 20 h
# Method: as §1, §3
# E. coli 1103 = format: cell-based, Escherichia coli; settings: 1103, 20 h
# Method: as §1, §3
# E. coli BL 21 AI = assay: Growth inhibition assay (MIC); format: cell-based, Escherichia coli; settings: 1% TSB, 37° C., 20 hrs
# Method: as §1, §3
# B. subtilis 347 = format: cell-based, Bactillus subtillis; settings: 347, 20 h
# Method: as §1, §3
Compound,MIC S. enterica subsp. Enterica serovar. typhi G10215 ATCC 700408 [1] [µg/mL],"MIC K. Pneumonia K6, ATCC 700603 [2] [µg/mL]",MIC E. coli D31 (E. coli D31) [µg/mL],MIC S. typhi S5 (S. typhi S5) [µg/mL],MIC E. coli 45849 (E. coli 45849) [µg/mL],MIC K. Pneumonia 123132 (K. Pneumonia 123132) [µg/mL],MIC M. luteus ATCC 10240 (M. luteus ATCC 10240) [µg/mL],MIC K. pneumonia 681 (K. pneumonia 681) [µg/mL],MIC E. coli 1103 (E. coli 1103) [µg/mL],MIC E. coli BL 21 AI (E. coli BL 21 AI) [µg/mL],MIC B. subtilis 347 (B. subtilis 347) [µg/mL]
CC[C@H](C)[C@H](NC(=O)[C@H](Cc1ccc(O)cc1)NC(=O)[C@@H](NC(=O)[C@@H]1CCCN1C(=O)[C@H](CCCNC(=N)N)NC(=O)[C@H](CC(N)=O)NC(=O)[C@H](CC(N)=O)NC(=O)[C@H](CCCN)NC(C)=O)C(C)C)C(=O)N1CCC[C@H]1C(=O)N[C@@H](CCC(N)=O)C(=O)N1CCC[C@H]1C(=O)N[C@@H](CCCNC(=N)N)C(=O)N1CCC[C@H]1C(=O)N1CCC[C@H]1C(=O)N[C@@H](Cc1c[nH]cn1)C(=O)N1CCC[C@H]1C(=O)N[C@@H](CCCNC(=N)N)C(=O)N[C@@H](CC(C)C)C(=O)OC [compound 50] (Ac-[Orn]NNRPVYIPQPRPPHPRL-OMe),32,>128,>128,–,–,–,–,–,–,–,–
CC[C@H](C)[C@H](NC(=O)[C@H](Cc1ccc(O)cc1)NC(=O)[C@@H](NC(=O)[C@@H]1CCCN1C(=O)[C@H](CCCNC(=N)N)NC(=O)[C@H](CC(N)=O)NC(=O)[C@H](CC(N)=O)NC(=O)[C@H](CCCN)N=C(N(C)C)N(C)C)C(C)C)C(=O)N1CCC[C@H]1C(=O)N[C@@H](CCC(N)=O)C(=O)N1CCC[C@H]1C(=O)N[C@@H](CCCNC(=N)N)C(=O)N1CCC[C@H]1C(=O)N1CCC[C@H]1C(=O)N[C@@H](Cc1c[nH]cn1)C(=O)N1CCC[C@H]1C(=O)N[C@@H](CCCNC(=N)N)C(=O)N[C@@H](CC(C)C)C(N)=O [compound 120] ({Orn(α-tetramethylguanidino)}-NNRPVYIPQPRPPHPRL-NH2; N-terminus and C-terminus assumed),0.125,–,0.5,0.125,–,–,–,–,–,–,–
CC[C@H](C)[C@H](NC(=O)[C@H](Cc1ccc(O)cc1)NC(=O)[C@@H](NC(=O)[C@@H]1CCCN1C(=O)[C@H](CCCNC(=N)N)NC(=O)[C@H](CC(N)=O)NC(=O)[C@H](CC(N)=O)NC(=O)[C@@H](N)CCCN)C(C)C)C(=O)N1CCC[C@H]1C(=O)N[C@@H](CCC(N)=O)C(=O)N1CCC[C@H]1C(=O)N[C@@H](CCCNC(=N)N)C(=O)N1CCC[C@H]1C(=O)N1CCC[C@H]1C(=O)N[C@@H](Cc1c[nH]cn1)C(=O)N1CCC[C@H]1C(=O)N[C@@H](CCCNC(=N)N)CC(=O)N[C@@H](CC(C)C)C(N)=O [compound 121] (H-[Orn]NNRPVYIPQPRPPHP[β3hR]L-NH2),–,>128,16,–,128,128,–,–,–,–,–
CC[C@H](C)[C@H](NC(=O)[C@H](Cc1ccc(O)cc1)NC(=O)[C@@H](NC(=O)[C@@H]1CCCN1C(=O)[C@H](CCCNC(=N)N)NC(=O)[C@H](CC(N)=O)NC(=O)[C@H](CC(N)=O)NC(=O)CNC(C)=O)C(C)C)C(=O)N1CCC[C@H]1C(=O)N[C@@H](CCC(N)=O)C(=O)N1CCC[C@H]1C(=O)N[C@@H](CCCNC(=N)N)C(=O)N1CCC[C@H]1C(=O)N1CCC[C@H]1C(=O)N[C@@H](Cc1c[nH]cn1)C(=O)N1CCC[C@H]1C(=O)N[C@@H](CCCCNC(=N)N)C(=O)N[C@@H](CC(C)C)C(N)=O [compound 132] (Ac-GNNRPVYIPQPRPPHP[hArg]L-NH2),–,–,–,–,–,–,32,32,64,32,128
CC[C@H](C)[C@H](NC(=O)[C@H](Cc1ccc(O)cc1)NC(=O)[C@@H](NC(=O)[C@@H]1CCCN1C(=O)[C@H](CCCNC(=N)N)NC(=O)[C@H](CC(N)=O)NC(=O)[C@H](CC(N)=O)NC(=O)CN=C(N(C)C)N(C)C)C(C)C)C(=O)N1CCC[C@H]1C(=O)N[C@@H](CCC(N)=O)C(=O)N1CCC[C@H]1C(=O)N[C@@H](CCCNC(=N)N)C(=O)N1CCC[C@H]1C(=O)N1CCC[C@H]1C(=O)N[C@@H](Cc1c[nH]cn1)C(=O)N1CCC[C@H]1C(=O)N[C@@H](CCCCNC(=N)N)C(=O)N[C@@H](CC(C)C)C(N)=O [compound 133] (X1-NNRPVYIPQPRPPHP[hArg]L-NH2; N-terminus and C-terminus assumed),2,–,16,16,–,–,32,8,16,–,–
GNNRPVYIPQPRPPHPL-NH2 [compound 43],>64,>64,>128,–,–,–,–,–,–,–,–
GNNRPVYIPQPRPPHPRF-NH2 [compound 44],4,64,128,–,–,–,–,–,–,–,–
